Test results taken from patent US20120083505A1, “Use of opioid receptor antagonists for acute treatment of paraphilic arousal states” (priority 2009, published 2012).

Assays:
obsessive sexual desire = conditions: two cases; regular fixed dosage regimen over a longer period; after several treatments; cited from earlier work
[1] = tested on: patients with paraphilic patterns of sexual excitation/arousal; experiment: Case reports: acute nasal naloxone in two paedophilic patients, self-rated impulse control; format: in vivo, human; conditions: one or two puffs of nasal spray, 0.2 mg Naloxonhydrochloride per puff
From the text: In the clinical application (two patients with paraphilic patterns of sexual excitation/arousal, both paedophiles, but with individual symptomatology) the following observations were made:
The patient is a person with paedophile inclination towards sexually immature girls (in addition to their predominant orientation towards adult women). In their first marriage they had repeatedly abused the child of their spouse […] (touching the genitals of the child, as well as having themself touched until reaching the climax). These crimes have not yet become known or led to any form of legal prosecution, and this first marriage is divorced since several years. Owing to their job as music teacher the patient was increasingly in contact with girls of the preferred age during the recent two years; the patient was very worried (and this worry was justified) that they might exploit the situation for the sexual abuse of their pupils. In the course of treatment at the Institute for Sexual Medicine of the Charité University Clinic of Berlin the patient has changed their professional field so that they are mainly involved in the treatment of grown-ups. […]

SMILES | frequency of obsessive sexual desire (obsessive sexual desire) | sexual interest in the child ([1]; patient 1 (marked expression of symptoms)) | sexual interest in child one ([1]; patient 2 (moderate expression of symptoms))
O=C1CC[C@@]2(O)[C@H]3Cc4ccc(O)c5c4[C@@]2(CCN3CC2CC2)C1O5 (stereo partly drawn) [Naltrexon, 17-cyclopropylmethyl-3,14-dihydroxy-4,5-epoxy-morphinan-6-on] | reduction in frequency of obsessive sexual desire could be observed |  | 
C=CCN1CC[C@]23c4c5ccc(O)c4O[C@H]2C(=O)CC[C@@]3(O)[C@H]1C5 [naloxone, 17-allyl-3,14-dihydroxy-4,5-epoxy-morphinan-6-on] |  | sufficient reduction of their sexual interest in the child | reduction of their sexual interest in child one
